In patent publication US5500424A, “Pyrimidine and pyridine derivatives, their production and use” (Nihon Nohyaku Co., Ltd., priority 1993, dated 1996):

What was measured:
[1] = target: T1, acyl-CoA:cholesterol acyltransferase (ACAT) (Oryctolagus cuniculus, UniProt G1SFD9); experiment: Inhibitory activity on acyl-CoA:cholesterol acyltransferase (ACAT); assay type: biochemical, white rabbit; conditions: rabbit intestinal mucosa microsomes, read-out: Inhibition rate
T1 construct: The intestinal mucosa of a white rabbit was homogenized and microsomal fraction was obtained; from tissue; host or cells: white rabbit intestinal mucosa, microsomal fraction
T1 sequence (G1SFD9 1-524): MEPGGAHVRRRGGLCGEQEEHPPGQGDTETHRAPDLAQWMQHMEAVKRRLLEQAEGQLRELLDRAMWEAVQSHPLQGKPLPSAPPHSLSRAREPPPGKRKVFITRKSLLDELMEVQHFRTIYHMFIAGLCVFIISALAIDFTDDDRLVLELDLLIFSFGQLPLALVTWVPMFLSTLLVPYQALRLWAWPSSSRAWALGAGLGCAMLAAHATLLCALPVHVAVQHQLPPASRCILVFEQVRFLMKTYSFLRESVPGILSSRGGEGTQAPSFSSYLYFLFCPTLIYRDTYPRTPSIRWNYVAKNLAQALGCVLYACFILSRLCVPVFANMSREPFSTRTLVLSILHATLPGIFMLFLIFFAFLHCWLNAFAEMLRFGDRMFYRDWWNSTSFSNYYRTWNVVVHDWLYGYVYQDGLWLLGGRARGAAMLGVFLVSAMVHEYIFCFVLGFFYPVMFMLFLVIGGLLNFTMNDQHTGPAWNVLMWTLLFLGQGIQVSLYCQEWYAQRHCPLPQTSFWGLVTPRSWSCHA
Method: Inhibitory activity on acyl-CoA:cholesterol acyltransferase (ACAT)
The enzyme used in the test was prepared according to the method of Heider et al. [J. Lipid, Res. 24, 1127 (1983)]. The intestinal mucosa of a white rabbit was homogenized and microsomal fraction was obtained by stepwise centrifugation. The microsomal fraction was suspended in 0.154M phosphate buffer (pH 7.4) and stored at -80° C. until use.
ACAT activity was determined by a modification of the method of Helgerud et al. [J. Lipid Res. 22, 271 (1981)] by measuring radioactivity incorporated into cholesterol esters from [1-^14 C]oleyl-CoA, as an indication. As to the ACAT-inhibitory activity of each compound to be tested, the inhibition rate was calculated by the following equation. [formula]

[2] = system: hamsters fed on a high-cholesterol diet; experiment: Serum cholesterol lowering activity in hamsters fed on a high-cholesterol diet; assay type: in vivo, Male Syrian hamsters; conditions: Mesocricetus auratus, 30 mg/kg per day for 4 days, 24 hours after last administration, read-out: Reduction rate of total serum cholesterol concentration
Method: Serum cholesterol lowering activity in hamsters fed on a high-cholesterol diet
Male Syrian hamsters of 10-week-old were divided into three groups. The first group (normal group) was fed an ordinary diet for 4 days. The second group (control group) was fed a high cholesterol diet (containing 0.5% cholesterol and 8.0% coconut oil) for 4 days. The third group (treated group) was fed a high cholesterol diet and was treated with a compound for 4 days. Simultaneously with the beginning of the above feeding, the compound was suspended in a 0.5% carboxymethyl cellulose solution and administered to the treated group, in a dose of 30 mg (in terms of the compound) per kg of body weight per day for 4 days. A 0.5% carboxymethyl cellulose solution was also administered to the normal group and the control group in the same manner as above.
After 24 hours of the last administration, blood was collected and the cholesterol concentration in serum was measured by an enzymatic method. The reduction rate of the total serum cholesterol concentration was calculated from values obtained for the three groups by the following equation. [formula] wherein A: the serum cholesterol concentration of the control group.
B: the serum cholesterol concentration of the treated group.
C: the serum cholesterol concentration of the normal group.

inhibition at 0.01 µM [1] | inhibition at 1 µM [1] | SMILES | inhibition in vivo at 30 mg/kg [2]
58.8% | 99% | CCc1cccc(CC)c1NC(=O)Nc1cnc(-c2ccccc2)nc1-c1ccccc1Cl [Compound 14, N-[4-(2-Chlorophenyl)-2-phenylpyrimidin-5-yl]-N'-(2,6-diethylphenyl)urea] | 59.4%
53.1% |  | CC(C)c1cccc(C(C)C)c1NC(=O)Nc1ccc(-c2ccccc2)nc1-c1ccccc1Cl [Compound 63, N-[2-(2-Chlorophenyl)-6-phenylpyridin-3-yl]-N'-(2,6-diisopropylphenyl)urea] | 
69.5% |  | CC(C)c1cccc(C(C)C)c1NC(=O)Nc1cnc(N2CCCCC2)nc1-c1ccccc1Cl [Compound 56, N-[4-(2-Chlorophenyl)-2-(N-piperidino)pyrimidin-5-yl]-N'-(2,6-diisopropylphenyl)urea] | 
40.7% |  | CC(C)c1cccc(C(C)C)c1NC(=O)Nc1cnc(-c2ccccc2)nc1-c1ccc(Cl)cc1 [Compound 28, N-[4-(4-Chlorophenyl)-2-phenylpyrimidin-5-yl]-N'-(2,6-diisopropylphenyl)urea] | 
29.8% |  | CCCCCCCc1ccc(NC(=O)Nc2c(C(C)C)cccc2C(C)C)c(-c2ccccc2Cl)n1 [Compound 65, N-[2-(2-Chlorophenyl)-6-(n-heptyl)pyridin-3-yl]-N'-(2,6-diisopropylphenyl)urea] | 
48.4% |  | CC(C)c1cccc(C(C)C)c1NC(=O)Nc1cnc(C(C)(C)C)nc1-c1ccccc1Cl [Compound 50, N-[2-t-Butyl-4-(2-chlorophenyl)pyrimidin-5-yl]-N'-(2,6-diisopropylphenyl)urea] | 
46.8% |  | CC(C)c1cccc(C(C)C)c1NC(=O)Nc1cnc(-c2cc(Cl)cc(Cl)c2)nc1-c1ccccc1Cl [Compound 44, N-[4-(2-Chlorophenyl)-2-(3,5-dichlorophenyl)pyrimidin-5-yl]-N'-(2,6-diisopropylphenyl)urea] | 
43.6% |  | Cc1ccc(NC(=O)Nc2c(C(C)C)cccc2C(C)C)c(-c2ccccc2Cl)n1 [Compound 64, N-[2-(2-Chlorophenyl)-6-methylpyridin-3-yl]-N'-(2,6-diisopropylphenyl)urea] | 
63.2% |  | CCc1cccc(CC)c1NC(=O)Nc1cnc(N2CCOCC2)nc1-c1ccccc1Cl [Compound 57, N-[4-(2-Chlorophenyl)-2-(N-morpholino)pyrimidin-5-yl]-N'-(2,6-diethylphenyl)urea] | 59.5%

Further lines, the compound ahead of its results:

SMILES | inhibition at 0.01 µM [1] | inhibition at 1 µM [1] | inhibition in vivo at 30 mg/kg [2]
CCc1cccc(CC)c1NC(=O)Nc1cnc(-c2ccccc2)nc1-c1ccccc1SC [Compound 41, N-(2,6-Diethylphenyl)-N'-[4-(2-methylthiophenyl)-2-phenylpyrimidin-5-yl]urea] | 56.3% |  | 
Cc1nc(-c2ccccc2)nc(-c2ccccc2Cl)c1NC(=O)Nc1ccc(N(C)C)cc1 [Compound 6, N-[4-(2-Chlorophenyl)-6-methyl-2-phenylpyrimidin-5-yl]-N'-(4-dimethylaminophenyl)urea] |  | 23% | 
CC(C)c1cccc(C(C)C)c1NC(=O)Nc1cnc(-c2ccccc2)nc1-c1ccc(Cl)cc1Cl [Compound 30, N-[4-(2,4-Dichlorophenyl)-2-phenylpyrimidin-5-yl]-N'-[2,6-diisopropylphenyl)urea] | 37.1% |  | 
Cc1cc(C)c(NC(=O)Nc2c(C)nc(-c3ccccc3)nc2-c2ccccc2Cl)c(C)c1 [Compound 3, N-[4-(2-Chlorophenyl)-6-methyl-2-phenylpyrimidin-5-yl]-N'-(2,4,6-trimethylphenyl)urea] |  | 88.3% | 
CCc1cccc(CC)c1NC(=O)Nc1cnc(N2CCCC2)nc1-c1ccccc1Cl [Compound 53, N-[4-(2-Chlorophenyl)-2-(N-pyrrolidino)pyrimidin-5-yl]-N'-(2,6-diethylphenyl)urea] | 70% |  | 
Cc1cccc(C(C)C)c1NC(=O)Nc1c(C)nc(-c2ccccc2)nc1-c1ccccc1Cl [Compound 1, N-[4-(2-Chlorophenyl)-6-methyl-2-phenylpyrimidin-5-yl]-N'-(2-isopropyl-6-methylphenyl)urea] | 16.7% | 98% | 
CCOc1ncc(NC(=O)Nc2c(C(C)C)cccc2C(C)C)c(-c2ccccc2Cl)n1 [Compound 52, N-[4-(2-Chlorophenyl)-2-ethoxypyrimidin-5-yl]-N'-(2,6-diisopropylphenyl)urea] | 64.7% |  | 
Cc1nc(-c2ccccc2)nc(-c2ccccc2Cl)c1NC(=O)Nc1c(C(C)C)cccc1C(C)C [Compound 2, N-[4-(2-Chlorophenyl)-6-methyl-2-phenylpyrimidin-5-yl]-N'-(2,6-diisopropylphenyl)urea] | 58.5% | 99.2% | 42.7%
CC(C)c1cccc(C(C)C)c1NC(=O)Nc1ccc(C2CCCCC2)nc1-c1ccccc1Cl [Compound 67, N-[2-(2-Chlorophenyl)-6-cyclohexylpyridin-3-yl]-N'-(2,6-diisopropylphenyl)urea] | 58% |  | 
Cc1ncc(NC(=O)Nc2c(C(C)C)cccc2C(C)C)c(-c2ccccc2Cl)n1 [Compound 46, N-[4-(2-Chlorophenyl)-2-methylpyrimidin-5-yl]-N'-(2,6-diisopropylphenyl)urea] | 32% |  | 
CC(C)c1cccc(C(C)C)c1NC(=O)Nc1cnc(-c2ccccc2)nc1-c1ccccc1F [Compound 34, N-(2,6-Diisopropylphenyl)-N'-[4-(2-fluorophenyl)-2-phenylpyrimidin-5-yl]urea] | 65.8% |  | 74%
COc1ccccc1-c1nc(-c2ccccc2)ncc1NC(=O)Nc1c(C(C)C)cccc1C(C)C [Compound 40, N-(2,6-Diisopropylphenyl)-N'-[4-(2-methoxyphenyl)-2-phenylpyrimidin-5-yl]urea] | 47.5% |  | 
CC(C)c1cccc(C(C)C)c1NC(=O)Nc1cnc(-c2ccccc2)nc1-c1cccc(Cl)c1 [Compound 26, N-[4-(3-Chlorophenyl)-2-phenylpyrimidin-5-yl]-N'-(2,6-diisopropylphenyl)urea] | 58.9% |  | 
Cc1cccc(N(C)C)c1NC(=O)Nc1cnc(-c2ccccc2)nc1-c1ccccc1Cl [Compound 19, N-[4-(2-Chlorophenyl)-2-phenylpyrimidin-5-yl]-N'-(2-dimethylamino-6-methylphenyl)urea] | 35.9% |  | 
CC(C)c1cccc(C(C)C)c1NC(=O)Nc1cnc(N2CCN(C)CC2)nc1-c1ccccc1Cl [Compound 60, N-[4-(2-Chlorophenyl)-2-(4-methyl-1-piperazino)pyrimidin-5-yl]-N'-(2,6-diisopropylphenyl)urea] | 40.1% |  | 
O=C(Nc1cnc(-c2ccccc2)nc1-c1ccccc1Cl)Nc1c(F)cc(F)cc1F [Compound 23, N-[4-(2-Chlorophenyl)-2-phenylpyrimidin-5-yl]-N'-(2,4,6-trifluorophenyl)urea] |  | 87% | 
Cc1cccc(C)c1NC(=O)Nc1cnc(-c2ccccc2)nc1-c1ccccc1Cl [Compound 13, N-[4-(2-Chlorophenyl)-2-phenylpyrimidin-5-yl]-N'-(2,6-dimethylphenyl)urea] | 40.2% | 97.5% | 
Cc1cc(C)c(NC(=O)Nc2cnc(-c3ccccc3)nc2-c2ccccc2Cl)c(C)c1 [Compound 18, N-[4-(2-Chlorophenyl)-2-phenylpyrimidin-5-yl]N'-(2,4,6-trimethylphenyl) urea] |  | 79.7% | 
